Experimental data published in article PMC12095047, “Transport of phenoxyacetic acid herbicides by PIN-FORMED auxin transporters” (Nature Plants, 2025).
Values joined by “and” are separate entries in the source; they are usually repeats but may differ in a detail not shown here. Equal values may be shown once. Read-outs that look alike come from different tables or passages of the source.

Columns and labels:
PIN8 N223A = target: T1, PIN8 N223A (Arabidopsis thaliana, UniProt Q9LFP6, N223A); format: biochemical; conditions: for fold-change difference to the respective EC50 of wildtype PIN8: N223A
T1 construct: made in house
T1 sequence (Q9LFP6 whole entry N223A): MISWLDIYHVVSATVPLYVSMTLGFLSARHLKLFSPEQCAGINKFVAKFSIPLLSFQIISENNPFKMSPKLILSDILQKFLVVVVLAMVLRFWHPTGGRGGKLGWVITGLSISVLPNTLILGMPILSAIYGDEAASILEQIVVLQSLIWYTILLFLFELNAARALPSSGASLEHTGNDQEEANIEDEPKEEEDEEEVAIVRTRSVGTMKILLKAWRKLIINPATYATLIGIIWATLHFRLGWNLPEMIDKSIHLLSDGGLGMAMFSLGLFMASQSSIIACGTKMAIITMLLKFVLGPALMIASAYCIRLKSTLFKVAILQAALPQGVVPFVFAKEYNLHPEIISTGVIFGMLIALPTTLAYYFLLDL

PIN8 S55A/S146A = target: T2, PIN8 S55A/S146A (Arabidopsis thaliana, UniProt Q9LFP6, S146A/S55A); format: biochemical; conditions: Michaelis–Menten fit; for EC50: read-out: EC50 of peak current response
T2 construct: made in house
T2 sequence (Q9LFP6 whole entry S55A/S146A): as the sequence (Q9LFP6 whole entry N223A) above, with S55A, S146A, A223N counted along it

PIN8 Y150A = target: T3, PIN8 Y150A (Arabidopsis thaliana, UniProt Q9LFP6, Y150A); format: biochemical; conditions: for Imax / EC50: PIN8 Y150A, Michaelis–Menten fit; for EC50: read-out: EC50 of peak current response; for Peak current: Y150A, individual sensors
T3 construct: made in house
T3 sequence (Q9LFP6 whole entry Y150A): as the sequence (Q9LFP6 whole entry N223A) above, with Y150A, A223N counted along it

PIN8 Y150F = target: T4, PIN8 Y150F (Arabidopsis thaliana, UniProt Q9LFP6, Y150F); format: biochemical; conditions: for Imax / EC50: PIN8 Y150F, Michaelis–Menten fit; for EC50: read-out: EC50 of peak current response
T4 construct: made in house
T4 sequence (Q9LFP6 whole entry Y150F): as the sequence (Q9LFP6 whole entry N223A) above, with Y150F, A223N counted along it

[1] = test system: A. thaliana stem segments of wild type; test: Arabidopsis stem transport assay, Col-0 wild type; format: in vivo, Arabidopsis thaliana; conditions: for CPM: WT;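 on CPM: Segments numbered apical to basal with Segment 1 nearest the apical end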
Experimental: (§1) Arabidopsis stem transport assays were carried out as described. Briefly, 2 cm stem sections were cut above the rosette of 5-week-old plants and placed in inverted orientation into auxin transport buffer containing 500 pM IAA, 1% (wt/vol) sucrose, 5 mM 2-(N-morpholino)ethanesulfonic acid, pH 5.5 with or without 100 μM NPA. After 2 h the stems were transferred into auxin transport buffer containing 417 nM [^3H]-IAA or [^3H]-2,4-D as a substrate in the absence and presence of NPA. After 2 h, 5 mm segments were dissected, and the substrate was quantified using a liquid scintillation counter.

[2] = test system: A. thaliana stem segments of pin1 mutants; test: Arabidopsis stem transport assay, pin1 mutant; format: in vivo, Arabidopsis thaliana
Experimental: as §1

[3] = cited from earlier work

SMILES	fold-change difference to the respective EC50 of wildtype PIN8 (PIN8 N223A)	Imax (PIN8 S55A/S146A) [nA]	EC50 (PIN8 S55A/S146A) [µM]	Imax (PIN8 Y150A) [nA]	EC50 (PIN8 Y150A) [µM]	Peak current (PIN8 Y150A; 5 µM substrate)	Peak current (PIN8 Y150A; 20 µM substrate)	Peak current (PIN8 Y150A; 50 µM substrate)	Peak current (PIN8 Y150A; 100 µM substrate)	Peak current (PIN8 Y150A; 500 µM substrate)	Peak current (PIN8 Y150A; 1000 µM substrate)	Peak current (PIN8 Y150A; 2000 µM substrate)	Imax (PIN8 Y150F) [nA]	EC50 (PIN8 Y150F) [µM]	acid dissociation constant pKa [3]	further results
O=C(O)COc1ccc(Cl)cc1Cl [2,4-D, 2,4-dichlorophenoxyacetic acid]	completely abolishes binding	9 ± 2	38 ± 6	5 ± 1	684 ± 256	0.1509 nA and 0.05154 nA and 0.05368 nA and 0.1258 nA	0.08307 nA and 0.2336 nA and 0.2155 nA and 0.2901 nA	0.3395 nA and 0.5519 nA and 0.4679 nA and 0.5665 nA	0.6832 nA and 0.8682 nA and 0.7895 nA and 0.907 nA	2.171 nA and 2.337 nA and 2.071 nA and 2.343 nA	3.151 nA and 3.173 nA and 2.762 nA and 3.101 nA	4.437 nA and 4.148 nA and 3.583 nA and 4.038 nA	8 ± 2	816 ± 275	2.73	CPM ([1]; sheet EDF2I, + NPA, Segment 2, single stems): 33 CPM and 25 CPM and 26 CPM and 39 CPM; CPM ([1]; sheet EDF2I, + NPA, Segment 3, single stems): 20 CPM and 21 CPM and 33 CPM and 30 CPM; CPM ([1]; sheet EDF2I, - NPA, Segment 1, single stems): 76 CPM and 115 CPM and 77 CPM and 107 CPM; CPM ([1]; sheet EDF2I, - NPA, Segment 2, single stems): 35 CPM and 37 CPM and 34 CPM and 29 CPM and 30 CPM; CPM ([1]; sheet EDF2I, - NPA, Segment 3, single stems): 29 CPM and 37 CPM and 35 CPM and 26 CPM and 28 CPM; transport in stem segments, lower than IAA transport ([1]; wild-type plants): about 20 fold; transport in stem segments ([2]; pin1 mutants): completely abolished; CPM ([2]; sheet EDF2I, pin1, + NPA, Segment 1, single stems): 52 CPM and 51 CPM and 42 CPM and 38 CPM; CPM ([2]; sheet EDF2I, pin1, + NPA, Segment 2, single stems): 52 CPM and 31 CPM and 27 CPM and 33 CPM; CPM ([2]; sheet EDF2I, pin1, - NPA, Segment 2, single stems): 18 CPM and 32 CPM and 22 CPM and 34 CPM and 25 CPM
O=C(O)COc1ccc(Cl)cc1 [4-CPA, 4-chlorophenoxyacetic acid]	completely abolishes binding	11 ± 0.9	81 ± 3	5 ± 0.4	2620 ± 263	0.004001 nA and 0.000964 nA and 0.005187 nA and 0.01098 nA	0.001883 nA and 0.005268 nA and 0.002512 nA and 0.004292 nA	0.02123 nA and 0.03866 nA and 0.02734 nA and 0.07514 nA	0.1072 nA and 0.1421 nA and 0.1118 nA and 0.1489 nA	0.7863 nA and 0.8129 nA and 0.8214 nA and 0.8974 nA	1.36 nA and 1.41 nA and 1.338 nA and 1.516 nA	2.1396 nA and 2.167 nA and 2.059 nA and 2.335 nA	5 ± 0.9	710 ± 228	–	–
O=C(O)Cc1c[nH]c2ccccc12 [IAA, indole-3-acetic acid]	–	7 ± 2	341 ± 128	4 ± 0.3	1210 ± 298	0.07393 nA and 0.1605 nA and 0.184 nA	0.162 nA and 0.2178 nA and 0.2518 nA	0.2702 nA and 0.3405 nA and 0.3285 nA	0.09437 nA and 0.3629 nA and 0.1017 nA	0.8668 nA and 1.165 nA and 0.6916 nA	1.921 nA and 2.062 nA and 1.677 nA	2.244 nA and 2.472 nA and 1.95 nA	6 ± 2	452 ± 32	4.7	Imax (PIN8 N223A; PIN8 N223A, Michaelis–Menten fit): 2 ± 0.8 nA; EC50 (PIN8 N223A; PIN8 N223A, Michaelis–Menten fit, No transport = model could not be fit, read-out: EC50 of peak current response): 444 ± 205 µM; fold-change difference to the respective EC50 of wildtype PIN8 (PIN8 Y150F; Y150F, direction shown by colour only): ~ 2 fold; CPM ([1]; sheet EDF2H, + NPA, Segment 1, single stems): 342 CPM and 190 CPM and 344 CPM and 366 CPM and 333 CPM; CPM ([1]; sheet EDF2H, + NPA, Segment 2, single stems): 98 CPM and 93 CPM and 124 CPM and 114 CPM; CPM ([1]; sheet EDF2H, + NPA, Segment 3, single stems): 125 CPM and 94 CPM and 137 CPM and 146 CPM and 104 CPM; CPM ([1]; sheet EDF2H, - NPA, Segment 3, single stems): 181 CPM and 109 CPM and 111 CPM and 125 CPM and 156 CPM; CPM ([2]; sheet EDF2H, pin1, + NPA, Segment 2, single stems): 103 CPM and 109 CPM and 91 CPM and 134 CPM and 78 CPM; CPM ([2]; sheet EDF2H, pin1, + NPA, Segment 3, single stems): 70 CPM and 80 CPM and 98 CPM and 135 CPM and 76 CPM; CPM ([2]; sheet EDF2H, pin1, - NPA, Segment 3, single stems): 119 CPM and 97 CPM and 69 CPM and 107 CPM and 82 CPM
